The structures appear in SMILES notation. Converted amounts (≈) assume the structure as drawn.

Among the test systems are Escherichia coli B; Bacillus subtilis 168; Pseudomonas aeruginosa; Staphylococcus aureus; Candida albicans; Escherichia coli.
Assay in all cases: ≥ marks a high value that may be exact or a test limit, other limits are often not marked, values filed in µg/mL are converted to µM
For test [1], the system named is Staphylococcus aureus USA 300.
Test [2] relates to Escherichia coli ATCC 25922.
Test [3] concerns Acinetobacter baumannii ATCC 19606.
In test [4] the test system is Bacillus subtilis ATCC 23857.
In test [5] the test system is Staphylococcus aureus ATCC 25923.
The subject of test [6] is Staphylococcus epidermidis ATCC 12228.
Test [7] has as its system Klebsiella pneumoniae ATCC 700603.
In test [8] the test system is Pseudomonas aeruginosa ATCC 27853.
Test [9] concerns Enterococcus faecalis ATCC 29212.
In test [10] the test system is Klebsiella pneumoniae ATCC 13883.
Test [11] concerns Pseudomonas aeruginosa PAO1.
Test [12] has as its system Bacillus subtilis ATCC 6633.
Test [13] relates to Candida albicans ATCC 10231.
Test [14] deals with Pseudomonas aeruginosa ATCC 9027.
Test [15] deals with Staphylococcus aureus ATCC 29213.
Test [16] relates to Salmonella enterica subsp. enterica serovar Typhimurium C77-31.
Test [17] relates to Salmonella enterica subsp. enterica serovar Pullorum C79-13.

Turning to `CC[C@H](C)[C@H](NC(=O)[C@H](C)NC(=O)[C@H](CCCCN)NC(=O)[C@H](C)N)C(=O)N[C@H](C(=O)N[C@@H](CCCN=C(N)N)C(=O)N[C@H](C(=O)N[C@H](C(=O)N[C@@H](CCC(=O)O)C(=O)N[C@@H](CCC(N)=O)C(=O)N[C@@H](C)C(=O)N1CCC[C@H]1C(=O)N[C@@H](CCCCN)C(=O)N[C@H](C(=O)N[C@@H](C)C(=O)N[C@@H](CCCCN)C(=O)N[C@@H](C)C(=O)N[C@@H](CCCCN)C(=O)N[C@@H](CCCCN)C(=O)N[C@@H](CO)C(=O)O)[C@@H](C)O)[C@@H](C)CC)[C@@H](C)O)C(C)C` [AKAIVRTIEQAPKTAKAKKS], the MIC in test [1] was no less than 128 µM.

Regarding `CC(C)C[C@H](NC(=O)[C@H](C)NC(=O)[C@@H](NC(=O)[C@H](CCCCN)NC(=O)[C@H](C)NC(=O)[C@H](CCCN=C(N)N)NC(=O)[C@H](CCCCN)NC(=O)[C@H](CC(C)C)NC(=O)[C@H](C)NC(=O)CN)[C@@H](C)O)C(N)=O` [GALKRAKTAL], the MIC is greater than 512 µM in test [2]; greater than 512 µM in test [3]; no less than 512 µM in test [4]; greater than 512 µM in test [5]; greater than 512 µM in test [6]; greater than 512 µM in [7]. In addition, the minimum inhibitory concentration (MIC) in [8] and in [9] was greater than 512 µM each time.

In the case of `CC[C@H](C)[C@H](NC(=O)[C@H](CCCN=C(N)N)NC(=O)[C@H](CCCCN)NC(=O)[C@H](Cc1ccccc1)NC(=O)[C@H](Cc1ccccc1)NC(=O)CN)C(=O)N[C@@H](CCCN=C(N)N)C(=O)N[C@H](C(=O)N[C@@H](Cc1ccccc1)C(=O)N[C@@H](Cc1ccccc1)C(N)=O)[C@@H](C)O` [GFFKRIRTFF], the minimum inhibitory concentration (MIC) in test [2] turned out to be 32 µM (≈ 42.2 µg/mL); in test [3] it was 64 µM (≈ 84.3 µg/mL); in test [4], 16 µM (≈ 21.1 µg/mL); in [5], 16 µM (≈ 21.1 µg/mL); in test [6] it was 64 µM (≈ 84.3 µg/mL); in [7] it was 32 µM (≈ 42.2 µg/mL). Moreover, the MIC came to 4 µM (≈ 5.27 µg/mL) in test [8] and 64 µM (≈ 84.3 µg/mL) in [9].

For `CC[C@H](C)[C@H](NC(=O)[C@H](CO)NC(=O)[C@H](CC(C)C)NC(=O)[C@H](Cc1ccccc1)NC(=O)CN)C(=O)N[C@@H](CC(C)C)C(=O)N[C@@H](CCCCN)C(=O)N[C@@H](CCCCN)C(=O)N[C@H](C(=O)N[C@@H](CC(C)C)C(=O)N[C@@H](C)C(=O)N[C@@H](CCCCN)C(=O)N[C@H](C(=O)N[C@@H](CCSC)C(=O)N[C@@H](C)C(=O)N[C@@H](Cc1cnc[nH]1)C(=O)N[C@@H](CCSC)C(=O)N[C@@H](CCCCN)C(N)=O)C(C)C)C(C)C` [GFLSILKKVLAKVMAHMK], the MIC against Escherichia coli B is 1.6 µM (≈ 3.22 µg/mL); in the test on Bacillus subtilis 168, 1.3 µM (≈ 2.62 µg/mL); against Pseudomonas aeruginosa, 18.3 µM (≈ 36.8 µg/mL); in the test on Staphylococcus aureus, 4.7 µM (≈ 9.46 µg/mL).

On to `CC[C@H](C)[C@H](NC(=O)CNC(=O)[C@H](C)NC(=O)[C@@H](NC(=O)[C@@H](NC(=O)CN)[C@@H](C)CC)[C@@H](C)CC)C(=O)N[C@@H](C)C(=O)N[C@H](C(=O)N[C@@H](CCCCN)C(=O)N[C@H](C(=O)N[C@@H](CCCCN)C(=O)N[C@@H](CCCCN)C(N)=O)[C@@H](C)CC)[C@@H](C)CC` [GIIAGIAIKIKK], for which the MIC in test [2] is 64 µM (≈ 78.3 µg/mL); in [4], no less than 32 µM.

`CC[C@H](C)[C@H](NC(=O)CN)C(=O)N[C@H](C(=O)N[C@@H](CCCCN)C(=O)NCC(=O)N[C@H](C(=O)N[C@H](C(=O)N[C@@H](CCCCN)C(=O)N[C@@H](CCCCN)C(=O)N[C@H](C(=O)N[C@H](C(=O)N[C@@H](CCCCN)C(N)=O)[C@@H](C)CC)[C@@H](C)CC)[C@@H](C)CC)[C@@H](C)CC)[C@@H](C)CC` [GIIKGIIKKIIK]: the MIC in test [2] is 64 µM (≈ 84.7 µg/mL); in test [4] it was 8 µM (≈ 10.6 µg/mL).

`CC(C)C[C@H](NC(=O)[C@H](CC(C)C)NC(=O)[C@H](CCCCN)NC(=O)CNC(=O)[C@H](CC(C)C)NC(=O)[C@H](CC(C)C)NC(=O)[C@H](CO)NC(=O)[C@H](CC(C)C)NC(=O)[C@H](CC(C)C)NC(=O)[C@H](CC(C)C)NC(=O)[C@H](CO)NC(=O)[C@H](CC(C)C)NC(=O)CN)C(N)=O` [GLSLLLSLLGKLL]: the MIC in [2] is greater than 25 µM; in [1] it was 1.6 µM (≈ 2.14 µg/mL); in test [10] it was 25 µM (≈ 33.5 µg/mL); in test [11], greater than 25 µM.

With `CC[C@H](C)[C@H](NC(=O)[C@H](CCC(=O)O)NC(=O)[C@H](CCCCN)NC(=O)[C@H](CCSC)NC(=O)[C@H](CCCCN)NC(=O)[C@H](C)NC(=O)[C@H](CC(C)C)NC(=O)[C@H](Cc1ccccc1)NC(=O)[C@H](C)NC(=O)[C@H](CCC(N)=O)NC(=O)[C@H](CC(C)C)NC(=O)[C@H](CCCN=C(N)N)NC(=O)CN)C(=O)N[C@@H](C)C(=O)N[C@@H](C)C(=O)N[C@@H](CCC(N)=O)C(=O)N[C@H](C(=O)N[C@@H](CC(C)C)C(N)=O)[C@@H](C)O` [GRLQAFLAKMKEIAAQTL], the minimal inhibitory concentration (MIC) is 4.44 µM (≈ 8.84 µg/mL) in [2], 1.77 µM (≈ 3.52 µg/mL) against Candida albicans, 2.22 µM (≈ 4.41 µg/mL) in test [12] and 7.1 µM (≈ 14.1 µg/mL) in test [8].

Take `CC(C)C[C@H](NC(=O)[C@H](CC(C)C)NC(=O)[C@H](CCCN=C(N)N)NC(=O)[C@H](CCCN=C(N)N)NC(=O)[C@H](CC(C)C)NC(=O)[C@@H](N)CC(C)C)C(=O)N[C@@H](CCCN=C(N)N)C(=O)N[C@@H](CCCN=C(N)N)C(N)=O` [LLRRLLRR]: the results for the minimum inhibitory concentration (MIC) in test [4] and in test [13] were no less than 57.1 µM and 114 µM (≈ 125 µg/mL), respectively.

Turning to `CC[C@H](C)[C@H](NC(=O)[C@H](CCCCN)NC(=O)[C@H](CCCCN)NC(=O)[C@H](C)NC(=O)[C@@H](NC(=O)[C@H](C)NC(=O)[C@H](C)NC(=O)[C@H](CC(C)C)NC(=O)[C@H](C)NC(=O)[C@H](CCCCN)NC(=O)[C@H](CC(C)C)NC(=O)[C@H](CC(N)=O)NC(=O)[C@@H](N)CC(C)C)C(C)C)C(=O)N[C@@H](CC(C)C)C(N)=O` [LNLKALAAVAKKIL], the MIC stood at 8 µM (≈ 11.7 µg/mL) in test [4], 16 µM (≈ 23.4 µg/mL) in test [5], 16 µM (≈ 23.4 µg/mL) in [7] and 8 µM (≈ 11.7 µg/mL) in the test on Escherichia coli.

For `CC[C@H](C)[C@H](NC(=O)[C@H](CCCCN)NC(=O)[C@H](CCCCN)NC(=O)[C@H](C)NC(=O)[C@@H](NC(=O)[C@H](CCCCN)NC(=O)[C@H](CC(C)C)NC(=O)[C@H](CC(C)C)NC(=O)[C@H](CCCCN)NC(=O)[C@H](CCCCN)NC(=O)[C@H](CC(C)C)NC(=O)[C@H](CC(N)=O)NC(=O)[C@@H](N)CC(C)C)C(C)C)C(=O)N[C@@H](CC(C)C)C(N)=O` [LNLKKLLKVAKKIL], the MIC was determined as 8 µM (≈ 13 µg/mL) in test [2]; 4 µM (≈ 6.48 µg/mL) in test [14]; 4 µM (≈ 6.48 µg/mL) in test [4]; 16 µM (≈ 25.9 µg/mL) in test [5]; 8 µM (≈ 13 µg/mL) in test [7].

Turning to `CC[C@H](C)[C@H](NC(=O)[C@H](CCCN=C(N)N)NC(=O)[C@H](CCCN=C(N)N)NC(=O)[C@H](C)NC(=O)[C@@H](NC(=O)[C@H](C)NC(=O)[C@H](CC(C)C)NC(=O)[C@H](CC(C)C)NC(=O)[C@H](C)NC(=O)[C@H](CCCN=C(N)N)NC(=O)[C@H](CC(C)C)NC(=O)[C@H](CC(N)=O)NC(=O)[C@@H](N)CC(C)C)C(C)C)C(=O)N[C@@H](CC(C)C)C(N)=O` [LNLRALLAVARRIL], the MIC was 4 µM (≈ 6.36 µg/mL) in [2]; 8 µM (≈ 12.7 µg/mL) in [14]; 4 µM (≈ 6.36 µg/mL) in [4]; 4 µM (≈ 6.36 µg/mL) in test [5]; 16 µM (≈ 25.5 µg/mL) in [7].

Take `CC(C)C[C@H](NC(=O)[C@@H](NC(=O)[C@@H](NC(=O)[C@@H](N)CC(C)C)C(C)C)[C@@H](C)O)C(=O)N[C@H](C(=O)N[C@@H](Cc1ccccc1)C(=O)N[C@H](C(=O)NCC(=O)NCC(=O)NCC(=O)N[C@@H](Cc1c[nH]c2ccccc12)C(=O)N[C@@H](CCCCN)C(=O)N[C@@H](Cc1c[nH]c2ccccc12)C(=O)N[C@@H](CCCCN)C(=O)N[C@@H](Cc1c[nH]c2ccccc12)C(=O)N[C@@H](CCC(=O)O)C(=O)N[C@@H](CC(N)=O)C(=O)NCC(=O)N[C@@H](CCCCN)C(=O)N[C@@H](Cc1c[nH]c2ccccc12)C(=O)N[C@@H](CCCCN)C(=O)N[C@@H](Cc1c[nH]c2ccccc12)C(=O)N[C@@H](CCCCN)C(=O)N[C@@H](Cc1c[nH]c2ccccc12)C(=O)O)C(C)C)C(C)C` [LVTLVFVGGGWKWKWENGKWKWKW]: the MIC in test [2] is 64 µM (≈ 193 µg/mL); in test [15], greater than 128 µM; in test [16] it was no less than 128 µM; in test [6], greater than 128 µM; in [17], no less than 128 µM; in test [9] it was 8 µM (≈ 24.2 µg/mL).
